Source: patent US6333337A, “Potassium channel inhibitors” (ICAgen, Inc., priority 1999, dated 2001)
pIC50: −log10 of the molar value.

Assays:
human Kv1.5 = molecular target: T1, human Kv1.5 (Homo sapiens, UniProt P22460); assay: 86Rb efflux assay, inhibition of 86Rb efflux through Kv1.5 potassium channels expressed in CHO cells; assay type: cell-based; conditions: Kv1.5 in CHO cells, 70 mM KCl, 1 minute
T1 construct: expressed in transfected cells
Procedure: Cells stably transfected with cDNA for human Kv1.5 (in pcDNA3 vector) were grown as confluent monolayers in 96 well tissue culture plates in MEM alpha with 10% heat inactivated fetal bovine serum and 400 μg/ml G418. Cells were incubated overnight in growth media containing 1 μCi/ml ^86 Rb to permit intracellular uptake of the isotope. At the end of the incubation period, the ^86 Rb solution was aspirated and the cells washed three times with Earls Balanced Salt Solution (EBSS) which contained (in mM) 132 NaCl 5.4 KCl, 1.8 CaCl2, 0.8 mM MgCl2 10 mM HEPES and 5 mM glucose. The cells were then preincubated for 10 minutes at room temperature in 100 μl/well of EBSS or EBSS containing test compounds. At the end of this period the wells were aspirated and to each well was then added 100 μl of a modified EBSS solution containing 70 mM KCl (NaCl replaced by KCl) and the compound to be tested. The high KCl concentration was utilized to depolarize the cells to membrane potentials that would activate Kv1.5 channels. After a 1 minute incubation in 70 mM KCl EBSS plus test compound, the solution was removed and placed into the appropriate well of a 96 well counting plate for analysis. Finally 100 μl of 0.1% sodium docecyl sulfate in EBSS was added to each well to lyse the cells. The lysate was taken for analysis to determine final cell content of ^86 Rb. Samples were counted in a Wallac Microbeta liquid scintillation counter by Cerenkov emission. Efflux was expressed as a percentage of the initial cell content of ^86 Rb.
The testing results of selective compounds from Tables 1A-C using this assay are reported in Table 2 (flux) as the potency for inhibition of ^86 Rb efflux through Kv1.5 potassium channels expressed in CHO cells by compounds of the invention.

Kv1.5 potassium channel = molecular target: T2, Kv1.5 potassium channel (Homo sapiens, UniProt P22460); assay: Electrophysiological studies, whole cell patch clamp, inhibition of Kv1.5 potassium currents in Chinese hamster ovary cells; assay type: cell-based; conditions: CHO cells
T2 construct: expressed in transfected cells
Procedure: Electrophysiological recordings of potassium currents in Chinese hamster ovary cells stably expressing the gene construct for the Kv1.5 potassium channel subunit were performed using the whole cell configuration of the patch clamp technique (Hamill et al., Pflugers Archiv 391:85, 1981). Cell lines expressing Kv1.5 were prepared using standard techniques known to those skilled in the art. Cells were plated on glass coverslips at a density of 2×10^4 cells/coverslip and used within 24-48 hours. Solutions used for electrophysiological recordings were as follows. Extracellular bathing solutions contained (in mM) 132 NaCl, 5.4 KCl, 1.8 CaCl2, 0.8 MgCl2, 10 HEPES, 5 glucose at pH 7.3. Electrode pipette solutions for measuring Kv1.5 contain (in mM) 100 KCl 5 NaCl, 2 MgCl2, 5 mM EGTA, 10 mM HEPES and 5 glucose at pH 7.4, 295 mOsm. The coverslips were placed in a small chamber (volume ~200 μl) on the mechanical stage of an inverted microscope and perfused (2 ml/min) with extracellular recording solution. Drug was applied using a series of narrow-bore glass capillary tubes (inner diameter ~100 μm) positioned approximately 200 μm from the cell.

T2 sequence (P22460 whole entry): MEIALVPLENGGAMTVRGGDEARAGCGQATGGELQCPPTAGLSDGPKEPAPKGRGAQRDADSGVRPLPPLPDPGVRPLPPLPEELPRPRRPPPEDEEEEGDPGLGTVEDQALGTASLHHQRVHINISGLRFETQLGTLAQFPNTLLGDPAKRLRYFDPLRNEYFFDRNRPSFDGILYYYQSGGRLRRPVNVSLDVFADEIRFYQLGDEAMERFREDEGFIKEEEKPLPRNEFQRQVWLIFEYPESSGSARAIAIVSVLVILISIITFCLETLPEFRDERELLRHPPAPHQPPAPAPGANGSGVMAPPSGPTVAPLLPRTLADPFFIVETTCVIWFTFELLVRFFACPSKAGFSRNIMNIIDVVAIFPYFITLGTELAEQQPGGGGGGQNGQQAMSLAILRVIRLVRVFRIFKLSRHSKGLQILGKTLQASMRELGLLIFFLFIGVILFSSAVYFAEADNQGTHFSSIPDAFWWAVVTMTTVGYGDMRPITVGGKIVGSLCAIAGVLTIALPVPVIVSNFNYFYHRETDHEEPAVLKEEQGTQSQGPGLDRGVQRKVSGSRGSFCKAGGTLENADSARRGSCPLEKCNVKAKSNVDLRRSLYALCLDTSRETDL
T1 sequence (P22460 whole entry): as above

| SMILES | pIC50 (human Kv1.5) | pIC50 (Kv1.5 potassium channel) |
| --- | --- | --- |
| CCc1ccc(S(=O)(=O)NC2c3cc(NC(=O)C4Cc5ccccc5CN4CC)ccc3CCC2O)cc1 (stereo not drawn) [Entry 24] | 5.23 | 6.22 |
| CCc1ccc(S(=O)(=O)N(Cc2cccnc2)C2c3cc(NC(=O)c4cccc(OC)c4)ccc3CCC2O)cc1 (stereo not drawn) [Entry 132] |  | 6.30 |
| CCc1ccc(S(=O)(=O)NC2c3cc(NC(=O)c4cccc(OC)c4)ccc3CCC2O)cc1 (stereo not drawn) [Entry 158] |  | 6.22 |
| CCc1ccc(S(=O)(=O)NC2c3cc(NC(=O)c4cccs4)ccc3CCC2O)cc1 (stereo not drawn) [Entry 103] | 4.70 |  |
| CCc1ccc(S(=O)(=O)NC2c3cc(N(Cc4cccnc4)C(=O)C4CC4)ccc3CCC2O)cc1 (stereo not drawn) [Entry 123] |  | 7.00 |
| CCc1ccc(S(=O)(=O)NC2c3cc(NC(=O)C4CCCN4Cc4cccc(Cl)c4)ccc3CCC2O)cc1 (stereo not drawn) [Entry 135] |  | 7.00 |
| COc1cc(C)c(S(=O)(=O)NC2c3cc(NC(=O)c4ccccc4)ccc3CCC2O)c(C)c1C (stereo not drawn) [Entry 110] | 4.92 |  |
| CCc1ccc(S(=O)(=O)N[C@H]2c3cc(NCc4ccc(OC(F)(F)F)cc4)ccc3CC[C@@H]2O)cc1 (relative stereo) [Entry 60, trans-N1-(4-ethylphenylsulfonyl)-N7-(4-trifluoromethoxybenzyl)-1,7-diamino-1,2,3,4-tetrahydro-2-naphthalenol] | < 4.30 | 6.30 |
| CCc1ccc(S(=O)(=O)NC2c3cc(N(Cc4cccnc4)C(=O)C4CC4)ccc3CCC2O)cc1 (stereo not drawn) [Entry 162] |  | 6.70 |
| Cc1cccc(C(=O)Nc2ccc3c(c2)C(NS(=O)(=O)c2cccc(C)c2)C(O)CC3)c1 (stereo not drawn) [Entry 97] | 4.41 |  |
| CCc1ccc(S(=O)(=O)NC2c3cc(NC(=O)c4ccccc4OC)ccc3CCC2O)cc1 (stereo not drawn) [Entry 13] | < 4.30 | 6.40 |
| CCc1ccc(C(=O)Nc2ccc3c(c2)C(NS(=O)(=O)c2ccc(C(C)C)cc2)C(O)CC3)cc1 (stereo not drawn) [Entry 40] | 5.05 |  |
| CCCc1ccc(S(=O)(=O)NC2c3cc(NC(=O)c4ccc([N+](=O)[O-])cc4)ccc3CCC2O)cc1 (stereo not drawn) [Entry 85] | 4.34 |  |
| CCc1ccc(S(=O)(=O)NC2c3cc(NC(=O)c4cccc(OC)c4)ccc3CCC2O)cc1 (stereo not drawn) [Entry 1] | 5.17 | 6.60 |
| COc1cccc(C(=O)Nc2ccc3c(c2)C(NS(=O)(=O)Cc2ccccc2)C(O)CC3)c1 (stereo not drawn) [Entry 70] | 4.54 | 5.68 |
| CCCCc1ccc(S(=O)(=O)NC2c3cc(NC(=O)c4cccc(OC)c4)ccc3CCC2O)cc1 (stereo not drawn) [Entry 19] | 5.54 | 7.30 |
| CCc1ccc(S(=O)(=O)NC2c3cc(NC(=O)C#Cc4ccccc4)ccc3CCC2O)cc1 (stereo not drawn) [Entry 28] | 5.23 | 7.05 |
